Source: PubChem BioAssay (NCI)
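Protocol summary: plate cells (96-well), add compound at 5 concentrations, incubate 48 h, interpolate endpoints linearly. GI50 marks 50% less growth. TGI marks complete inhibition of growth.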

How the values were obtained:
Test in all cases: inhibition of tumour cell growth, NCI panel, 48 h
OVCAR-5 ovarian = system: OVCAR-5 ovarian
LOX IMVI melanoma = system: LOX IMVI melanoma
MDA-MB-231 breast = system: MDA-MB-231 breast
SF-539 CNS = system: SF-539 CNS
HOP-62 NSCLC = system: HOP-62 NSCLC
NCI-H460 lung = system: NCI-H460 lung
HOP-92 NSCLC = system: HOP-92 NSCLC
SK-MEL-2 melanoma = system: SK-MEL-2 melanoma
M14 melanoma = system: M14 melanoma
SF-268 CNS = system: SF-268 CNS

Structure (SMILES) | TGI (OVCAR-5 ovarian) | TGI (LOX IMVI melanoma) | TGI (MDA-MB-231 breast) | TGI (SF-539 CNS) | TGI (HOP-62 NSCLC) | TGI (NCI-H460 lung) | TGI (HOP-92 NSCLC) | GI50 (SK-MEL-2 melanoma) | TGI (SK-MEL-2 melanoma) | TGI (M14 melanoma) | TGI (SF-268 CNS) | GI50 (OVCAR-5 ovarian) | GI50 (LOX IMVI melanoma) | GI50 (MDA-MB-231 breast) | GI50 (SF-539 CNS) | GI50 (HOP-62 NSCLC) | GI50 (NCI-H460 lung) | GI50 (HOP-92 NSCLC) | GI50 (M14 melanoma) | GI50 (SF-268 CNS)
Nc1nc(N)c2cc(Sc3ccc4ccccc4c3)ccc2n1 | 10.4 µM | 1.93 µM | 5.28 µM | 5.04 µM | 4.35 µM | 2.26 µM | 5.44 µM | 1.68 µM | 3.42 µM | 2.88 µM | 4.19 µM | – | – | – | – | – | – | – | – | –
COc1ccc(C2=NC(=O)NC2c2ccc(OC)cc2)cc1 (stereo not given) | > 100 µM | > 100 µM | > 100 µM | 54.8 µM | > 100 µM | 51.8 µM | 30.5 µM | 5.34 µM | 52.8 µM | 25.4 µM | > 100 µM | 25.9 µM | 12.4 µM | 12.3 µM | 12.6 µM | 15.2 µM | 6.73 µM | 1.95 µM | 4.03 µM | 16.5 µM
COc1ccc(-c2nc(-c3nc4cc(Cl)c(F)cc4[nH]3)c3ccccn23)cc1 | > 100 µM | > 100 µM | > 100 µM | > 100 µM | > 100 µM | > 100 µM | > 100 µM | 6.86 µM | 80 µM | > 100 µM | > 100 µM | > 100 µM | 5.36 µM | 5.82 µM | 39.8 µM | 19.8 µM | 5.43 µM | 3.24 µM | 5.15 µM | 9.11 µM
CCCN(CCC)c1ccc(C=O)c(Cl)c1 | 2.33 µM | > 63.7 µM | 43.7 µM | > 65 µM | 64.9 µM | 39.3 µM | 36 µM | 15 µM | 44.3 µM | > 100 µM | > 91.5 µM | 0.432 µM | 23.4 µM | 18.9 µM | 23.8 µM | 13.3 µM | 2.19 µM | 9.64 µM | 26 µM | 33.9 µM
Cn1cc(-c2cc(-c3cn(C)c4ccc(Cl)cc34)[nH]n2)c2cc(Cl)ccc21 | 13 µM | 3.8 µM | 15.1 µM | 3.46 µM | 94.8 µM | 5.47 µM | 4.74 µM | 2.34 µM | 6.13 µM | 5.3 µM | 44.4 µM | 3.11 µM | 1.7 µM | 2.95 µM | 1.81 µM | 7.98 µM | 2.35 µM | 1.86 µM | 2.15 µM | 5.29 µM
Nc1c(C(=O)c2cccc(C#CCN3CCCCC3)c2)cnn1-c1ccc(F)cc1 | > 25 µM | > 25 µM | > 25 µM | > 25 µM | > 25 µM | > 25 µM | > 25 µM | > 25 µM | > 25 µM | > 25 µM | > 25 µM | > 25 µM | > 25 µM | > 25 µM | > 25 µM | > 25 µM | > 25 µM | 10.3 µM | > 25 µM | > 25 µM
CCCCCCCCCc1ccc(OCCOCCOCCOCCOCCOCCOCCOCCOCCO)cc1 | 3.54 µM | 0.996 µM | 1.51 µM | 2.67 µM | 1.05 µM | 1.65 µM | 3.07 µM | 0.876 µM | 1.96 µM | 2.13 µM | 3.37 µM | 1.1 µM | 0.23 µM | 0.668 µM | 0.949 µM | 0.412 µM | 0.301 µM | 0.792 µM | 0.892 µM | 0.685 µM
O=C(NN1C(=O)CSC1c1cccc(Cl)c1)C(O)c1ccccc1 (stereo not given) | > 100 µM | > 100 µM | > 100 µM | > 100 µM | > 100 µM | > 100 µM | > 100 µM | > 100 µM | > 100 µM | > 100 µM | > 100 µM | > 100 µM | > 100 µM | 87.7 µM | > 100 µM | > 100 µM | 42.8 µM | > 100 µM | > 100 µM | > 100 µM
COc1ccc2c(c1)C(=O)/C(=C/c1cccc(OCC(=O)Nc3nc(C)c(C)s3)c1)O2 | 1.14 µM | < 0.0178 µM | 0.738 µM | 0.0965 µM | 0.0238 µM | 8.49 µM | 0.0562 µM | 0.0199 µM | 0.047 µM | 0.426 µM | 0.0743 µM | 0.205 µM | < 0.0127 µM | 0.121 µM | 0.052 µM | 0.0107 µM | 2.71 µM | 0.0186 µM | 0.187 µM | 0.0281 µM
CC(=O)c1ccc2c(c1)N(CCCN1CCN(CCO)CC1)c1ccccc1S2 | 9.78 µM | 3.26 µM | 4.51 µM | 3.55 µM | 4.77 µM | 4.09 µM | 5.97 µM | 2.11 µM | 6.02 µM | 3.6 µM | 12.2 µM | 2.29 µM | 1.68 µM | 1.96 µM | 1.73 µM | 1.99 µM | 2.05 µM | 1.1 µM | 1.88 µM | 3.15 µM
CCOC(=O)c1ccc(NC(=O)NC2=NCCS2)cc1 | > 100 µM | > 100 µM | > 100 µM | 2.27 µM | > 100 µM | > 100 µM | > 100 µM | 24.6 µM | 97.9 µM | > 100 µM | > 100 µM | 99.1 µM | 39.9 µM | 1.64 µM | 0.381 µM | 1.75 µM | 3.2 µM | 0.418 µM | 2.66 µM | 3.5 µM
COc1cc(C2=NN(C(C)=O)C(c3cc(OC)c(OC)c(OC)c3)C2)ccc1O (stereo not given) | > 100 µM | > 100 µM | > 100 µM | 1.54 µM | > 100 µM | > 40.8 µM | > 100 µM | – | > 100 µM | > 100 µM | > 100 µM | 6.74 µM | 0.618 µM | 1.79 µM | 0.271 µM | 0.571 µM | 0.346 µM | 67 µM | 0.342 µM | 0.539 µM
C=C1C(=O)O[C@H]2[C@H]1CC/C(Cn1cc(-c3ccc(N)cc3)nn1)=C\CC[C@@]1(C)O[C@@H]21 | 22.9 µM | 2.88 µM | 15.8 µM | 8.75 µM | 23.8 µM | 29.7 µM | 5.33 µM | 10.6 µM | 28.9 µM | 10.8 µM | 16.3 µM | 6.43 µM | 1.51 µM | 3.45 µM | 2.77 µM | 10.2 µM | 10.4 µM | 2.13 µM | 2.97 µM | 3.7 µM
Clc1ccc(/C=C/c2ccc3ccccc3n2)cc1 | > 100 µM | > 100 µM | > 100 µM | 13.8 µM | > 100 µM | 15.7 µM | > 29.9 µM | 0.311 µM | 1.24 µM | 1.01 µM | > 88.3 µM | 4.36 µM | 2.51 µM | 2.3 µM | 0.428 µM | > 100 µM | 1.2 µM | 2.82 µM | 0.298 µM | 0.641 µM
c1ccc(-c2nc3n(c2-c2ccc4c(c2)OCO4)CCC3)nc1 | > 25 µM | > 25 µM | > 25 µM | 21.6 µM | > 17.6 µM | 13.3 µM | 20.8 µM | 11.7 µM | > 25 µM | > 20.3 µM | > 25 µM | 5.03 µM | 7.46 µM | 4.25 µM | 6.38 µM | 4.93 µM | 4.51 µM | 3.48 µM | 6.77 µM | 7.86 µM
